Source: patent US20230150970A1, “AMINOPYRIMIDINE DERIVATIVES AND THEIR USE AS ARYL HYDROCARBON RECEPTOR MODULATORS” (DONG-A ST CO., LTD., priority 2020, published 2023)
Read-outs that look alike come from different tables or passages of the source.

Tests used:
AhR [1] = biological target: T1, AhR (Homo sapiens, UniProt P35869); experiment: In Vitro Assay 4: endogenous AhR activity assay (CYP1A1 and CYP1B1 mRNA, qRT-PCR, HepG2 cells)
T1 sequence (P35869 11-848): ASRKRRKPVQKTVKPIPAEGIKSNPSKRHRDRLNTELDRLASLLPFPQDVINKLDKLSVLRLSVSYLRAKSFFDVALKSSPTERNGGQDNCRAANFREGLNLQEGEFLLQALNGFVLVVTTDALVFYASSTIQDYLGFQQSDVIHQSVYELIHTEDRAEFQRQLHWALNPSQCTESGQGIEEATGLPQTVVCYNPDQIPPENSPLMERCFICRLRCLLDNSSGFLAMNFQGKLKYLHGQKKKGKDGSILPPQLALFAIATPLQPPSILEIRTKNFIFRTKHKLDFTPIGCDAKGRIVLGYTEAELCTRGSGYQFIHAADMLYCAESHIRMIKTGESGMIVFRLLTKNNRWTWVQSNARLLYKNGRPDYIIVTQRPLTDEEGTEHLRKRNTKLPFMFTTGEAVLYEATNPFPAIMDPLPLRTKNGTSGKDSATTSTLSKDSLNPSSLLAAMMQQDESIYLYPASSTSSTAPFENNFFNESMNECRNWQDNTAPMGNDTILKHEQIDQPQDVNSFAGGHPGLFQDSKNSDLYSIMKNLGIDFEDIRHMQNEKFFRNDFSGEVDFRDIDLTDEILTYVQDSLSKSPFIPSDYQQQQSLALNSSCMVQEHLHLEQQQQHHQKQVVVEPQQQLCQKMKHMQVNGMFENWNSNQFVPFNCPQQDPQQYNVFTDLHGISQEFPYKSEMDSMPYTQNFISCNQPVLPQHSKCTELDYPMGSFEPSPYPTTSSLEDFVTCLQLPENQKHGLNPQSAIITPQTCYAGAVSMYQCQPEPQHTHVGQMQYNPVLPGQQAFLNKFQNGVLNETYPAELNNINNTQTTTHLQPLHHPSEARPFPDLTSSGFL
Description: In Vitro Assay 4: Endogenous AhR Activity Assay
HepG2 cells were seeded in 12-well plate (3×10^5 cells/well). A day after seeding, the cells were treated with TCDD (10 nM) alone or with compounds (123 nM) for 4 hours. Total RNA was extracted using Trizol (Thermo Fisher Scientific). cDNA synthesis and quantitative RT-PCR (qRT-PCR) assays were performed using PrimeScript™ RT Master Mix (TAKARA) and TB Green™ Premix Ex Taq™ II (TAKARA) in accordance with manufacturer's instruction. For the measurement of endogenous AhR activity, relative mRNA levels of CYP1A1 and CYP1B1 were quantitated relative to β-actin mRNA by the comparative Ct (ΔΔCt) method. The percent inhibitions were calculated according to:

AhR [2] = biological target: T2, AhR (Mus musculus, UniProt P30561); experiment: In Vitro Assay 2: XRE-luciferase reporter assay, antagonism in mouse cell line (Hepa1c1c7); type: cell-based; conditions: 6 hours, read-out: Assay 2: AhR-Luc Mouse Antagonism (IC50)
T2 sequence (P30561 1-848): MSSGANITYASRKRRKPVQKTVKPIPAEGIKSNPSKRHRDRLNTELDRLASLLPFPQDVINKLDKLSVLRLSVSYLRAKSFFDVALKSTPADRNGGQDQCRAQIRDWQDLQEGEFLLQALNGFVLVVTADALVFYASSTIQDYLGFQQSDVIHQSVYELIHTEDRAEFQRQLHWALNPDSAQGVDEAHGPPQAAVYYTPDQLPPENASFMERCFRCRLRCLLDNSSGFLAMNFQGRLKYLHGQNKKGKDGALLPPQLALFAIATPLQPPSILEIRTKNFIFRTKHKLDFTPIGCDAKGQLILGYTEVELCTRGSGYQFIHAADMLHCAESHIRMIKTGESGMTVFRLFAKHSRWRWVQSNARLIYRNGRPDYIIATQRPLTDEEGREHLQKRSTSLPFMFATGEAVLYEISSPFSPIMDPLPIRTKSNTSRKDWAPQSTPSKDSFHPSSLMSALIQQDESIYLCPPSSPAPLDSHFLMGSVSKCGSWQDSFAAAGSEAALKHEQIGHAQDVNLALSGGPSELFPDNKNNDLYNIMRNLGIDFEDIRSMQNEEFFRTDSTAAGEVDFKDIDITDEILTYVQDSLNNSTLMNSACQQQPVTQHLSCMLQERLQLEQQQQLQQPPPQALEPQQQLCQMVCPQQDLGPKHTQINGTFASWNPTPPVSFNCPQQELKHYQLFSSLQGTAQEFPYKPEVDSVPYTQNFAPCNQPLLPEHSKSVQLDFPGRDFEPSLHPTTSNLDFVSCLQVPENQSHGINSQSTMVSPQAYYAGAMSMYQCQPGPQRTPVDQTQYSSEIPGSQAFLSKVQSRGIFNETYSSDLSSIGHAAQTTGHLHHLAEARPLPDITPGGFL
Description: In Vitro Assay 2: Antagonism in Mouse Cell Line
Hepa1c1c7 (murine liver cancer cell line) cells co-transfected with XRE-Luc and Nano-Luc plasmids were plated in complete medium and incubated overnight at 37° C. in a CO2 incubator. Following incubation, cells were treated with AhR activating ligands such as kynurenic acid, kynurenine (#) with or without test compounds for 6 hours.

AhR [3] = biological target: T1, AhR; experiment: In Vitro Assay 3: XRE-luciferase reporter assay, agonism in human cell line (HepG2); type: cell-based; parameters: endogenous in cells; host or cells: HepG2; conditions: HepG2, tryptophan free medium, 6 hours, no agonist, read-out: Assay 3: AhR-Luc Human Agonism (EC50)
Description: In Vitro Assay 3: Agonism in Human Cell Line
HepG2 (human hepatoma cell line) cells co-transfected with XRE-Luc and Nano-Luc plasmids were plated in tryptophan free medium containing 1% of dialyzed fetal bovine serum and incubated overnight at 37° C. in a CO2 incubator. After 24 hours, cells were treated for 6 hours with test compounds or not. […] As a positive control, cells were incubated with TCDD.

AhR [4] = biological target: T1, AhR; experiment: In Vitro Assay 1: XRE-luciferase reporter assay, antagonism in human cell line (HepG2)
[5] = HepG2, read-out: CYP1A1 (% Inhibition)
[6] = HepG2, read-out: CYP1B1 (% Inhibition)
[7] = values marked #: AhR activating ligand kynurenine
[8] = Assay 1: AhR-Luc Human Antagonism (IC50, nM), values marked *: kynurenine 50 μM, 6 hours
[9] = Assay 1: AhR-Luc Human Antagonism (IC50, nM), unmarked values: kynurenine 200 μM, 6 hours
[10] = unmarked values: AhR activating ligand kynurenic acid

| Compound | inhibition at 0.123 µM (AhR [1]; [5]) [%] | inhibition at 0.123 µM (AhR [1]; [6]) [%] | IC50 (AhR [2]; [7]) [nM] | EC50 (AhR [3]; number of the cell) [nM] | IC50 (AhR [4]; [8]) [nM] | EC50 (AhR [3]; class in brackets of the cell) [nM] | IC50 (AhR [4]; [9]) [nM] | IC50 (AhR [2]; [10]) [nM] | IC50 (AhR [4]; read-out: Assay 1: AhR-Luc Human Antagonism (IC50), values marked *: kynurenine 50 μM, 6 hours) [nM] | IC50 (AhR [4]; read-out: Assay 1: AhR-Luc Human Antagonism (IC50), unmarked values: kynurenine 200 μM, 6 hours) [nM] |
| --- | --- | --- | --- | --- | --- | --- | --- | --- | --- | --- |
| CC[C@H](CO)Nc1cc(-c2ccc(Cl)cc2)nc(-c2cccnc2)n1 [Example 1, (R)-2-((6-(4-chlorophenyl)-2-(pyridin-3-yl)pyrimidin-4-yl)amino)butan-1-ol] | 60 | 92 | 100 to 1000 | 12.6 | 10 to 100 | – | – | – | – | – |
| CN1CCN(C2CCN(c3cc(-c4ccc(Cl)cc4)nc(-c4cccnc4)n3)CC2)CC1 [Example 92, 4-(4-chlorophenyl)-6-(4-(4-methylpiperazin-1-yl)piperidin-1-yl)-2-(pyridin-3-yl)pyrimidine] | – | – | 100 to 1000 | > 30000 | 10 to 100 | > 10000 | – | – | – | – |
| O=C1CN(c2cc(-c3ccc(Cl)cc3)nc(-c3cccnc3)n2)CCN1 [Example 94, 4-(6-(4-chlorophenyl)-2-(pyridin-3-yl)pyrimidin-4-yl)piperazin-2-one] | 63.1 | 92.1 | 100 to 1000 | > 30000 | 10 to 100 | > 10000 | – | – | – | – |
| CN1CCN(c2cc(-c3ccc(Cl)cc3)nc(-c3cccnc3)n2)CC1 [Example 105, 4-(4-chlorophenyl)-6-(4-methylpiperazin-1-yl)-2-(pyridin-3-yl)pyrimidine] | 59.2 | 88.4 | 100 to 1000 | > 30000 | < 10 | > 10000 | – | – | – | – |
| CS(=O)(=O)N1CCN(c2cc(-c3ccc(Cl)cc3)nc(-c3cccnc3)n2)CC1 [Example 107, 4-(4-chlorophenyl)-6-(4-(methylsulfonyl)piperazin-1-yl)-2-(pyridin-3-yl)pyrimidine] | – | – | 10 to 100 | > 30000 | – | > 10000 | < 10 | – | – | – |
| CC(=O)NC1CCN(c2cc(-c3ccc(Cl)cc3)nc(-c3cccnc3)n2)C1 (stereo not shown) [Example 143, N-(1-(6-(4-chlorophenyl)-2-(pyridin-3-yl)pyrimidin-4-yl)pyrrolidin-3-yl)acetamide] | – | – | 100 to 1000 | > 30000 | < 10 | > 10000 | – | – | – | – |
| CC(=O)N1CCC(CNc2cc(-c3ccc(Cl)cc3)nc(-c3cccnc3)n2)CC1 [Example 154, 1-(4-(((6-(4-chlorophenyl)-2-(pyridin-3-yl)pyrimidin-4-yl)amino)methyl)piperidin-1-yl)ethan-1-one] | – | – | 10 to 100 | > 30000 | < 10 | > 10000 | – | – | – | – |
| O[C@H]1CC[C@@H](Nc2cc(-c3ccc(Cl)cc3)nc(-c3cccnc3)n2)C1 [Example 162, (1S,3R)-3-((6-(4-chlorophenyl)-2-(pyridin-3-yl)pyrimidin-4-yl)amino)cyclopentan-1-ol] | – | – | 100 to 1000 | > 30000 | < 10 | > 10000 | – | – | – | – |
| CC(=O)N1CCCN(c2cc(-c3ccc(Cl)cc3)nc(-c3cccnc3)n2)C1 [Example 232, 1-(3-(6-(4-chlorophenyl)-2-(pyridin-3-yl)pyrimidin-4-yl)tetrahydropyrimidin-1 (2H)-yl)ethan-1-one] | 100 | 99.8 | > 1000 | – | < 10 | – | – | – | – | – |
| OCC1CN(c2cc(-c3ccc(Cl)cc3)nc(-c3cccnc3)n2)CC1O (stereo not shown) [Example 236, 1-(6-(4-chlorophenyl)-2-(pyridin-3-yl)pyrimidin-4-yl)-4-(hydroxymethyl)pyrrolidin-3-ol] | – | – | 100 to 1000 | 40.1 | < 10 | – | – | – | – | – |
| CC(=O)N[C@@H]1CN(c2cc(-c3ccc(Cl)cc3)nc(-c3cccnc3)n2)C[C@@H]1O [Example 243, N-((3R,4S)-1-(6-(4-chlorophenyl)-2-(pyridin-3-yl)pyrimidin-4-yl)-4-hydroxypyrrolidin-3-yl)acetamide] | 89.7 | – | 10 to 100 | – | – | – | < 10 | – | – | – |
| OC[C@H]1CN(c2cc(-c3ccc(C(F)(F)F)cc3)nc(-c3cccnc3)n2)C[C@@H]1O [Example 258, (3R,4R)-4-(hydroxymethyl)-1-(2-(pyridin-3-yl)-6-(4-(trifluoromethyl)phenyl)pyrimidin-4-yl)pyrrolidin-3-ol] | 101 | – | – | – | – | – | < 10 | < 10 | – | – |
| OC[C@H]1CN(c2cc(-c3ccc(C(F)(F)F)cc3)nc(-c3cccnc3)n2)CCO1 [Example 280, (R)-(4-(2-(pyridin-3-yl)-6-(4-(trifluoromethyl)phenyl)pyrimidin-4-yl)morpholin-2-yl)methanol] | – | – | – | – | – | – | < 10 | 10 to 100 | – | – |
| OC[C@@H]1CCN(c2cc(-c3ccc(Cl)cc3)nc(-c3cccnc3)n2)C[C@H]1F [Example 282, ((3S,4S)-1-(6-(4-chlorophenyl)-2-(pyridin-3-yl)pyrimidin-4-yl)-3-fluoropiperidin-4-yl)methanol] | – | – | – | > 30000 | – | > 10000 | < 10 | 100 to 1000 | – | – |
| O[C@H]1CN(c2cc(-c3ccc(C(F)(F)F)cc3)nc(-c3cccnc3)n2)C[C@@H]1O [Example 283, (3S,4S)-1-(2-(pyridin-3-yl)-6-(4-(trifluoromethyl)phenyl)pyrimidin-4-yl)pyrrolidine-3,4-diol] | – | – | – | > 30000 | – | > 10000 | < 10 | 10 to 100 | – | – |
| Cn1cc(-c2nc(-c3ccc(C(F)(F)F)cc3)cc(N3CC[C@@H](C(=O)O)C3)n2)cn1 [Example 312, (R)-1-(2-(1-methyl-1H-pyrazol-4-yl)-6-(4-(trifluoromethyl)phenyl)pyrimidin-4-yl)pyrrolidine-3-carboxylic acid] | – | – | – | – | – | – | – | > 1000 | – | – |
| (3R,4R)-1-(6-(4-chlorophenyl)-2-(pyridin-3-yl)pyrimidin-4-yl)pyrrolidine-3,4-diol [Example 230] | – | – | 10 to 100 | – | – | – | – | – | 10 to 100 | – |
| (3R,4S)-1-(6-(4-chlorophenyl)-2-(pyridin-3-yl)pyrimidin-4-yl)pyrrolidine-3,4-diol [Example 231] | – | – | 10 to 100 | > 30000 | – | > 10000 | – | – | – | < 10 |
